Results published in PMC7497692 (Investigational New Drugs, 2020).
Where two headings read alike, the source gives them in different places.

Assay: Oral and IV tracer PK and absolute bioavailability (part B)
Format: in vivo, human healthy male volunteers
Conditions: for bioavailability: 500 mg; for tlag / tmax: median (min–max)
Method: Participants were hospitalized from day 1 to day 7 of the study, and further assessed on days 9, 11, and 14 (study end).
In brief, the isotopically labeled internal standard [^2H]-MSC2156119A was added to 20 μL K2-ethylenediaminetetraacetic acid (EDTA) plasma. […] Samples were centrifuged and 10 μL aliquots of the supernatant were injected onto an Acquity Charged Surface Hybrid™ (CSH) C18 column (2.1 × 50 mm; […]; Waters, Milford, Massachusetts, USA). Separation was carried out using a mobile phase gradient (eluent A: water/formic acid [100 + 1, v/v]; eluent B: acetonitrile/formic acid [100 + 1, v/v]) with a flow rate of 0.6 mL/min. […] The lower limit of quantification (LLOQ) was 5.00 ng/mL, and the calibration standard responses were linear over the range between 5.00 and 2500 ng/mL using a weighted (1/x^2) linear regression.
The accelerator mass spectrometry (AMS) analysis of [^14C]-tepotinib in plasma samples in part B of the trial was performed by Eckert & Ziegler Vitalea Science (Davis, California, USA) using a validated method that involves isolation of the analyte by ultra-high-performance liquid chromatography (UPLC) fractionation, followed by the quantification of the ^14C content in collected fractions using AMS [26]. […] Following protein precipitation and further chemical steps, 50 μL of the reconstituted extracts were injected onto a Waters Acquity UPLC instrument equipped with a CSH fluoro-phenyl analytical column (3.0 × 100 mm; 1.7 μm; Waters, Milford, Massachusetts, USA) and an ethylene bridged hybrid C18 (2.1 × 5 mm; 1.7 μm; Waters, Milford, Massachusetts, USA) pre-column. Separation of [^14C]-tepotinib from potentially interfering metabolites or degradants that may have been present in the study samples was carried out using a mobile phase gradient (eluent A: 5 mM ammonium acetate in water; eluent B: acetonitrile) with a flow rate of 0.75 mL/min. […] Samples were then introduced into the BioMICADAS AMS instrument (PSI/ETH, Zurich, Switzerland). The LLOQ was 0.0883 pg/mL.
The maximum plasma concentration (Cmax) and time to reach maximum concentration (tmax) were derived directly from the plasma concentration–time data. Lag time (tlag) was the time prior to the first measurable (non-zero) concentration. The area under the plasma concentration–time curve from 0 to t (last measurable concentration; AUC0–t) was calculated using a mixed log–linear trapezoidal method. Area under the plasma concentration–time curve until the last sampling time (AUCall), which corresponds to AUC0–240 h within the observation period, was used for metabolite calculations. Amounts excreted in urine, feces, and total (urine + feces) were calculated as the sum of amounts (concentration multiplied by volume) for each collection from time 0 to time t. The terminal rate constant (λz) was used to estimate the terminal half-life (t½) (ln 2/λz), and the area under the concentration–time curve from time 0 to infinity (AUC0–∞). Total body clearance (CL) and apparent body clearance (CL/f) were determined by dose/AUC0–∞, and total volume of distribution (Vz) and apparent volume of distribution (Vz/f) were calculated by dose/(AUC0–∞*λz) after IV and oral administration, respectively. Volume of distribution of the central compartment (Vc) was derived by dividing the dose by the initial drug plasma concentration after IV administration. Absolute bioavailability was calculated as F = (AUCoral/doseoral)/(AUCIV/doseIV) × 100. The ratios (%) AUCtepotinib or metabolite/AUCtotal radioactivity were calculated as a percentage of the molar AUCs.

[1] = single oral 500 mg tablet, geometric mean (geometric CV%), min–max
[2] = single oral 500 mg tablet, listed as tepotinib

## CN1CCC(COc2cnc(-c3cccc(Cn4nc(-c5cccc(C#N)c5)ccc4=O)c3)nc2)CC1 [Tepotinib]
500 mg tablet vs IV tracer, n=6
  absolute bioavailability, inter-individual variability (geometric CV): 10.8%
IV tracer, geometric mean (geometric CV%), min–max
  Vc: 34.6 L
IV tracer, geometric mean (geometric CV%), min–max, plasma
  t½: 31.2 h
male, human, in vivo, geometric mean, 500 mg phase II tablet formulation vs IV tracer, n=6, read-out: absolute bioavailability
  bioavailability: 72%
male, human, in vivo, range, 500 mg tablet vs IV tracer, n=6, read-out: absolute bioavailability, range
  bioavailability: 62 to 81%
male, human, in vivo, IV tracer, geometric mean (geometric CV%), min–max
  clearance: 213 mL/min
male, human, in vivo, IV tracer, geometric mean (geometric CV%), min–max, read-out: Vz
  Vd: 574 L
male, human, in vivo, single oral 500 mg tablet, geometric mean (geometric CV%), min–max, read-out: Vz/f
  Vd/F: 726 L
male, human, in vivo, summary statement in the discussion
  half-life: 1800 min
[1]
  CL/f: 17.8 L/h
  t½: 28.3 h
Single oral 500 mg tablet
  tlag: 0.52 (0.25–2.0) Hours
  tmax: 10.0 (3.0–10.0) Hours
[2]
  tlag: 0.5 h
  tmax: 10 h
